We go through 23 compounds from patent publication US20120184556A1, “SUBSTITUTED ENZOIMIDAZOLESULFONAMIDES AND SUBSTITUTED INDOLESULFONAMIDES AS MGLUR4 POTENTIATORS” (priority 2009, published 2012).

The assay addresses T1, human mGluR4 (Homo sapiens, UniProt Q14833).
T1 construct: expressed in transfected cells; host or cells: Chinese Hamster Ovary (CHO) cells
Put plainly: human mGluR4 potentiation assay, CHO cells, Fluo-4 calcium fluorescence, agonist EC20. It counts as cell-based. The following applies: for Emax: CHO, maximum extent of potentiation, human mGluR4, read-out: GluMax; for EC50: potentiation of human mGluR4 response to EC20 agonist, read-out: hEC50. The protocol: The disclosed compounds and compositions can be evaluated for their ability to act as a potentiator of metabotropic glutamate receptor activity, in particular mGluR4 activity, by any suitable known methodology known in the art. For example, Chinese Hamster Ovary (CHO) cells transfected with human mGluR4 or HEK cells co-transfected with rat mGluR4 and the G-protein regulated Inwardly Rectifying Potassium channel (GIRK) were plated in clear bottom assay plates for assay in a Hamamatsu FDSS Fluorometric Plate Reader. The cells were loaded with either the Ca2+-sensitive fluorescent dye Fluo-4 or the thallium responsive dye BTC, AM and the plates were washed and placed into a suitable kinetic plate reader. For human mGluR4 assays, a fluorescence baseline was established for 3-5 seconds, the disclosed compounds were then added to the cells, and the response in cells was measured. Approximately two and a half minutes later, a concentration of mGluR4 agonist (e.g. glutamate or L-AP4) eliciting approximately 20% (EC20) of the maximal agonist response was added to the cells, and the response was measured. Two minutes later, a concentration of mGluR4 agonist (e.g. glutamate or L-AP4) eliciting 80% (EC80) of the maximal agonist response was added to the cells, and the response was measured. For rat mGluR4/GIRK experiments, a baseline was established for approximately five seconds, disclosed compounds were added, and either an EC20 or EC80 concentration of agonist was added approximately two and one half minutes later. Potentiation of the agonist response of mGluR4 by the disclosed compounds was observed as an increase in response to the EC20 concentration of agonist in the presence of compound compared to the response to agonist in the absence of compound. Similarly, antagonism of the agonist response of mGluR4 by the disclosed compounds was observed as a decrease in response to the EC80 concentration of agonist in the presence of compound compared to the response to agonist in the absence of compound.
The above described assay operated in two modes. In the first mode, a range of concentrations of the disclosed compounds are added to cells, followed by a single fixed concentration of agonist. If the compound acts as a potentiatior, an EC50 value for potentiation and a maximum extent of potentiation by the compound at this concentration of agonist is determined by non-linear curve fitting. If the compound acts as a noncompetitive antagonist, an IC50 value is determined by non-linear curve fitting. In the second mode, several fixed concentrations of the disclosed compounds are added to various wells on a plate, followed by a range in concentrations of agonist for each concentration of disclosed compound. The EC50 values for the agonist at each concentration of compound are determined by non-linear curve fitting. A decrease in the EC50 value of the agonist with increasing concentrations of the sample compound (a leftward shift of the agonist concentration-response curve) is an indication of the degree of mGluR4 potentiation at a given concentration of the sample compound. A decrease in the maximal response of the agonist with increasing concentrations of the sample compounds, with or without a rightward shift in agonist potency, is an indication of the degree of noncompetitive antagonism at mGluR4. The second mode also indicates whether the sample compounds also affect the maximum response to mGluR4 to agonists.

Where a name gives a salt, the structure may show the parent alone.

T1 sequence (Q14833 33-912): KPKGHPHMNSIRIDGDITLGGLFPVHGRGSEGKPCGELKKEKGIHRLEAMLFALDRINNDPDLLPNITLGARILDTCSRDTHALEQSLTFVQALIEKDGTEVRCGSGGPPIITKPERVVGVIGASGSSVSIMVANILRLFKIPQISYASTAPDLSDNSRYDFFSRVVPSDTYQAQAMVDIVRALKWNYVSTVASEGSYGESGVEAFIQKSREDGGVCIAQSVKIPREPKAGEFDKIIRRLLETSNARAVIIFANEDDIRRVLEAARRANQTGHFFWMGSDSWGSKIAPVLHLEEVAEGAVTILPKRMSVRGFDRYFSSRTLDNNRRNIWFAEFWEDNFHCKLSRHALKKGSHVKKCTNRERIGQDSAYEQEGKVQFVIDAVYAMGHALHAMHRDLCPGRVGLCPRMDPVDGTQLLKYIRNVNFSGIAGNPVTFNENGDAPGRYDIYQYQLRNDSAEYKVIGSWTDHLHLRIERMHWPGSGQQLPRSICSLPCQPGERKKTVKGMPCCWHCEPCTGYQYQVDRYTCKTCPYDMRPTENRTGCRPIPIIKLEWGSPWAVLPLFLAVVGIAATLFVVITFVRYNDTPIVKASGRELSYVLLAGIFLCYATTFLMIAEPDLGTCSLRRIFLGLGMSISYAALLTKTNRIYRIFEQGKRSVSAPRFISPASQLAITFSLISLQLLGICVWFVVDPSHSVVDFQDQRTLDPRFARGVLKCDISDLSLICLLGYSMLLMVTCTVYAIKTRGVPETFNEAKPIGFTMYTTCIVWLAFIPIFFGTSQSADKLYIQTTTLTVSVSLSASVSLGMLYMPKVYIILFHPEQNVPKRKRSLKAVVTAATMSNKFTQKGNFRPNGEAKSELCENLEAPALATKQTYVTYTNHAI

Consider `O=S(=O)(Nc1ccccc1Cl)c1ccc2[nH]c(-c3cccnc3)nc2c1` [Example 5, N-(2-chlorophenyl)-2-(pyridin-3-yl)-1H-benzo[d]imidazole-5-sulfonamide], for which the Emax came out at 84% and the EC50 worked out at 5250 nM.
The matching figures for `O=S(=O)(Nc1ccccc1F)c1ccc2[nH]c(-c3cnccn3)nc2c1` [Example 37, N-(2-fluorophenyl)-2-(pyrazin-2-yl)-1H-benzo[d]imidazole-5-sulfonamide]: 118% and 5490 nM.
Consider `O=S(=O)(Nc1ccccc1Cl)c1ccc2[nH]c(-c3cccnn3)nc2c1` [Example 8, N-(2-chlorophenyl)-2-(pyridazin-3-yl)-1H-benzo[d]imidazole-5-sulfonamide TFA salt], for which the Emax stood at 204% and the EC50 worked out at 5670 nM.
As for `O=S(=O)(Nc1ccccc1F)c1ccc2[nH]c(-c3ccncn3)nc2c1` [Example 39, N-(2-fluorophenyl)-2-(pyrimidin-4-yl)-1H-benzo[d]imidazole-5-sulfonamide], the Emax was determined as 156% and the EC50 came out at 4820 nM.
For `O=S(=O)(Nc1ccc(F)cc1F)c1ccc2[nH]c(-c3ccccn3)nc2c1` [Example 51, N-(2,4-difluorophenyl)-2-(pyridin-2-yl)-1H-benzo[d]imidazole-5-sulfonamide], in that order: 252% and 99 nM.
For the compound `O=S(=O)(Nc1ccccc1Cl)c1ccc2[nH]c(-c3ccno3)nc2c1` [Example 43, N-(2-chlorophenyl)-2-(isoxazol-5-yl)-1H-benzo[d]imidazole-5-sulfonamide], the Emax was 69% and the EC50 was 2830 nM.
For `Cc1cc(-c2nc3cc(S(=O)(=O)Nc4ccccc4Cl)ccc3[nH]2)on1` [Example 35, N-(2-chlorophenyl)-2-(3-methylisoxazol-5-yl)-1H-benzo[d]imidazole-5-sulfonamide], in that order: 87% and 1980 nM.
In the case of `O=S(=O)(Nc1ccccc1F)c1ccc2[nH]c(-c3ccccc3)nc2c1` [Example 17, N-(2-Fluorophenyl)-2-phenyl-1H-benzo[d]imidazole-5-sulfonamide TFA salt], the Emax came to 87% and the EC50 worked out at 320 nM.
Consider `O=S(=O)(Nc1ccccc1Cl)c1ccc2[nH]c(-c3ncccc3F)nc2c1` [Example 15, N-(2-Chlorophenyl)-2-(3-fluoropyridin-2-yl)-1H-benzo[d]imidazole-5-sulfonamide], for which the Emax came to 192% and the EC50 was found to be 747 nM.
Regarding `O=S(=O)(Nc1ccccc1Cl)c1ccc2[nH]c(-c3cccc4c3OCO4)nc2c1` [Example 20, 2-(benzo[d][1,3]dioxol-4-yl)-N-(2-chlorophenyl)-1H-benzo[d]imidazole-5-sulfonamide], the Emax was found to be 49% and the EC50 came out at 172 nM.
In the case of `O=S(=O)(Nc1ccccc1Cl)c1ccc2[nH]c(-c3ccc(Cl)o3)nc2c1` [Example 30, 2-(5-chlorofuran-2-yl)-N-(2-chlorophenyl)-1H-benzo[d]imidazole-5-sulfonamide], the Emax came out at 76% and the EC50 was found to be 199 nM.
For `O=S(=O)(Nc1ccccc1Cl)c1ccc2[nH]c(-c3cc(Br)no3)nc2c1` [Example 34, 2-(3-bromoisoxazol-5-yl)-N-(2-chlorophenyl)-1H-benzo[d]imidazole-5-sulfonamide], the Emax was determined as 149% and the EC50 stood at 1100 nM.
Regarding `O=S(=O)(Nc1ccccc1Cl)c1ccc2[nH]c(-c3cccc(F)n3)nc2c1` [Example 13, N-(2-Chlorophenyl)-2-(6-fluoropyridin-2-yl)-1H-benzo[d]imidazole-5-sulfonamide], the Emax turned out to be 145% and the EC50 worked out at 111 nM.
For `O=S(=O)(Nc1ccccc1Cl)c1ccc2[nH]c(-c3cccc(Cl)n3)nc2c1` [Example 12, N-(2-Chlorophenyl)-2-(6-chloropyridin-2-yl)-1H-benzo[d]imidazole-5-sulfonamide], the Emax was 98% and the EC50 is 116 nM.
With `CC1CCN(S(=O)(=O)c2ccc3[nH]c(-c4ccccn4)nc3c2)CC1` [Example 45, 5-((4-methylpiperidin-1-yl)sulfonyl)-2-(pyridin-2-yl)-1H-benzo[d]imidazole], the Emax was 104% and the EC50 was 7450 nM.
For `Cc1nc[nH]c1-c1nc2cc(S(=O)(=O)Nc3ccccc3Cl)ccc2[nH]1` [Example 44, N-(2-chlorophenyl)-2-(4-methyl-1H-imidazol-5-yl)-1H-benzo[d]imidazole-5-sulfonamide], in that order: 36% and 13400 nM.
`O=S(=O)(Nc1ccccc1Cl)c1ccc2[nH]c(-c3ccccn3)nc2c1` [Example 3, N-(2-Chlorophenyl)-2-(pyridin-2-yl)-1H-benzo[d]imidazole-5-sulfonamide]: the Emax came out at 226% and the EC50 amounted to 72.3 nM.
Consider `O=S(=O)(Nc1ccccc1Cl)c1ccc2[nH]c(-c3ccccc3F)nc2c1` [Example 21, N-(2-chlorophenyl)-2-(2-fluorophenyl)-1H-benzo[d]imidazole-5-sulfonamide], for which the Emax was 64% and the EC50 is 988 nM.
`O=S(=O)(Nc1ccc(F)cc1F)c1ccc2[nH]c(-c3ccccc3)nc2c1` [Example 36, N-(2,4-difluorophenyl)-2-phenyl-1H-benzo[d]imidazole-5-sulfonamide]: the Emax turned out to be 73% and the EC50 stood at 296 nM.
The matching figures for `O=S(=O)(Nc1ccccc1Cl)c1ccc2[nH]c(-c3ncc(F)cc3F)nc2c1` [Example 31, N-(2-chlorophenyl)-2-(3,5-difluoropyridin-2-yl)-1H-benzo[d]imidazole-5-sulfonamide]: 123% and 473 nM.
As to `O=S(=O)(Nc1ccccc1Cl)c1ccc2[nH]c(-c3c(F)cccc3F)nc2c1` [Example 24, N-(2-chlorophenyl)-2-(2,6-difluorophenyl)-1H-benzo[d]imidazole-5-sulfonamide], the Emax worked out at 160% and the EC50 is greater than 10000 nM.
Turning to `CCc1ccc(NS(=O)(=O)c2ccc3[nH]c(-c4ccsc4)nc3c2)cc1` [Example 48, N-(4-ethylphenyl)-2-(thiophen-3-yl)-1H-benzo[d]imidazole-5-sulfonamide], the Emax stood at 85% and the EC50 came to 313 nM.
Take `N#Cc1ccc(NS(=O)(=O)c2ccc3[nH]c(-c4ccccc4)nc3c2)cc1` [Example 19, N-(4-Cyanophenyl)-2-phenyl-1H-benzo[d]imidazole-5-sulfonamide TFA salt]: the Emax worked out at 24% and the EC50 came to 4900 nM.
